Assay results from ChEMBL document CHEMBL1201862, “PubChem BioAssay data set” (2004).
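Assay format: 96-well plates, 48-hour exposure. GI50 marks 50% less growth.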 The source made the active and inactive calls. Rule as the data show it: active = GI50 up to about 1.1 µM and inactive = higher.

Legend:
Test in all cases: inhibition of tumour cell growth, NCI panel, 48 h
CAKI-1 = test system: CAKI-1
KM12 = test system: KM12
OVCAR-4 = test system: OVCAR-4
SNB-19 = test system: SNB-19
HCT-15 = test system: HCT-15
HCT-116 = test system: HCT-116
SK-OV-3 = test system: SK-OV-3
EKVX = test system: EKVX
MDA-MB-231 = test system: MDA-MB-231
A549 = test system: A549
MOLT-4 = test system: MOLT-4
NCI-H23 = test system: NCI-H23
TK-10 = test system: TK-10
UACC-62 = test system: UACC-62
SW-620 = test system: SW-620
T47D = test system: T47D
ACHN = test system: ACHN
SK-MEL-28 = test system: SK-MEL-28
COLO 205 = test system: COLO 205
NCI-H226 = test system: NCI-H226

Measured: GI50

COc1ccc2c3c1OC1C(=O)C=CC4(CC2)N(C)CCC314 (stereo not given)
inactive: CAKI-1 20.1 µM | KM12 14.1 µM | OVCAR-4 24 µM | SNB-19 19.5 µM | HCT-116 14 µM | SK-OV-3 36.4 µM | EKVX 19.6 µM | MDA-MB-231 41.2 µM | A549 22.8 µM | MOLT-4 12.8 µM | NCI-H23 14 µM | TK-10 27.3 µM | UACC-62 > 10 µM | SW-620 14.2 µM | T47D 19.4 µM | ACHN 18.9 µM | SK-MEL-28 22.2 µM | COLO 205 6.19 µM
18.9 µM: HCT-15

S=c1scc(-c2ccc(Cl)cc2)n1OC1CCCC1
inactive: CAKI-1 47.2 µM | KM12 18.5 µM | OVCAR-4 16.7 µM | SNB-19 69 µM | HCT-116 22.2 µM | SK-OV-3 36.2 µM | EKVX 28.1 µM | MDA-MB-231 39.5 µM | A549 26.2 µM | MOLT-4 15.9 µM | NCI-H23 16.9 µM | TK-10 72.8 µM | UACC-62 24.4 µM | SW-620 32.7 µM | T47D 12.9 µM | ACHN 25.5 µM | SK-MEL-28 72.4 µM | COLO 205 12 µM
21.8 µM: HCT-15

COc1ccc2c(c1)CCC1C3(CCCC21C)OCCO3 (stereo not given)
inactive: CAKI-1 34.6 µM | KM12 20.3 µM | OVCAR-4 29.4 µM | SNB-19 28.9 µM | HCT-116 16.8 µM | NCI-H226 17.4 µM | SK-OV-3 24 µM | EKVX 16.8 µM | A549 26.9 µM | MOLT-4 14.4 µM | NCI-H23 15.6 µM | TK-10 36.8 µM | UACC-62 15.4 µM | SW-620 33.9 µM | ACHN 23.3 µM | SK-MEL-28 20.2 µM | COLO 205 17.9 µM
17.1 µM: HCT-15

CN1Cc2cc3cc4c(cc3nc2N(C)C1)OCCO4
inactive: CAKI-1 > 100 µM | KM12 > 100 µM | OVCAR-4 > 100 µM | SNB-19 > 100 µM | HCT-116 > 100 µM | NCI-H226 > 100 µM | SK-OV-3 > 100 µM | EKVX > 100 µM | MDA-MB-231 > 100 µM | A549 > 100 µM | MOLT-4 64 µM | TK-10 > 100 µM | UACC-62 > 100 µM | SW-620 > 100 µM | ACHN > 100 µM | COLO 205 > 100 µM
> 100 µM: HCT-15

CC(C)=CCC/C(C)=C/CCC1(C)C2COC(=O)C21 (stereo not given)
57.4 µM: HCT-15
inactive: CAKI-1 > 100 µM | KM12 34.9 µM | OVCAR-4 42.8 µM | SNB-19 82.8 µM | HCT-116 31.9 µM | NCI-H226 > 100 µM | SK-OV-3 > 100 µM | EKVX 53.2 µM | MDA-MB-231 > 100 µM | MOLT-4 30.9 µM | NCI-H23 51.3 µM | TK-10 > 100 µM | UACC-62 > 100 µM | SW-620 19.3 µM | ACHN > 100 µM | SK-MEL-28 29 µM | COLO 205 48.3 µM

COc1cc(COC(=O)N(C)[C@@H](Cc2ccccc2)C(=O)O)c([N+](=O)[O-])cc1OC
inactive: KM12 > 100 µM | SNB-19 > 100 µM | HCT-116 > 100 µM | NCI-H226 > 100 µM | SK-OV-3 > 100 µM | EKVX > 100 µM | A549 > 100 µM | MOLT-4 > 100 µM | NCI-H23 > 100 µM | UACC-62 > 100 µM | SW-620 > 100 µM | T47D > 100 µM | ACHN > 100 µM
> 100 µM: HCT-15

Cc1cccc2[s+]snc12
inactive: CAKI-1 > 78.2 µM | KM12 > 100 µM | OVCAR-4 > 100 µM | SNB-19 > 100 µM | HCT-116 > 59.4 µM | NCI-H226 > 100 µM | SK-OV-3 > 100 µM | EKVX > 51.3 µM | A549 > 100 µM | MOLT-4 25.8 µM | NCI-H23 > 96.6 µM | TK-10 > 100 µM | UACC-62 > 100 µM | SW-620 24.2 µM | ACHN 63.5 µM | SK-MEL-28 > 47.5 µM | COLO 205 23.9 µM
> 47.4 µM: HCT-15

CC1CCOc2ccc(cc2)/C=N\c2ccc(cc2)-c2ccc(cc2)/N=C\c2ccc(cc2)OCC1
> 100 µM: HCT-15
inactive: CAKI-1 > 100 µM | KM12 > 100 µM | OVCAR-4 > 100 µM | HCT-116 > 100 µM | NCI-H226 > 100 µM | SK-OV-3 > 100 µM | EKVX > 100 µM | MDA-MB-231 > 100 µM | A549 > 100 µM | MOLT-4 > 100 µM | NCI-H23 > 100 µM | TK-10 > 100 µM | SW-620 > 100 µM | ACHN > 100 µM | SK-MEL-28 > 100 µM | COLO 205 > 100 µM
